How the values were obtained:
[1] = molecular target: T1, 5-hydroxytryptamine receptor 2C (Homo sapiens, UniProt P28335)
T1 sequence (P28335 whole entry): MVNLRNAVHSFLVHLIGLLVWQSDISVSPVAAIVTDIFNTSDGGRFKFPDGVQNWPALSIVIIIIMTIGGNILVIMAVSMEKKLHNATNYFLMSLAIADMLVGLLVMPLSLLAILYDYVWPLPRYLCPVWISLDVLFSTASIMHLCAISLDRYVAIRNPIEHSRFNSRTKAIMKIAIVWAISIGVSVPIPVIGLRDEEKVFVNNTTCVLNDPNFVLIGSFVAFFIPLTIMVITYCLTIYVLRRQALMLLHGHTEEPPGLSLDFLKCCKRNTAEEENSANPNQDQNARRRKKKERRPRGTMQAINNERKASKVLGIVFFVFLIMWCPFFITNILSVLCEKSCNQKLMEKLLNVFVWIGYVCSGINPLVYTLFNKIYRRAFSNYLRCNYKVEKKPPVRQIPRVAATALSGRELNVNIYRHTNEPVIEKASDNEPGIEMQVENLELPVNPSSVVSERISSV

[2] = molecular target: T2, Alpha-2B adrenergic receptor (Homo sapiens, UniProt P18089)
T2 sequence (P18089 whole entry): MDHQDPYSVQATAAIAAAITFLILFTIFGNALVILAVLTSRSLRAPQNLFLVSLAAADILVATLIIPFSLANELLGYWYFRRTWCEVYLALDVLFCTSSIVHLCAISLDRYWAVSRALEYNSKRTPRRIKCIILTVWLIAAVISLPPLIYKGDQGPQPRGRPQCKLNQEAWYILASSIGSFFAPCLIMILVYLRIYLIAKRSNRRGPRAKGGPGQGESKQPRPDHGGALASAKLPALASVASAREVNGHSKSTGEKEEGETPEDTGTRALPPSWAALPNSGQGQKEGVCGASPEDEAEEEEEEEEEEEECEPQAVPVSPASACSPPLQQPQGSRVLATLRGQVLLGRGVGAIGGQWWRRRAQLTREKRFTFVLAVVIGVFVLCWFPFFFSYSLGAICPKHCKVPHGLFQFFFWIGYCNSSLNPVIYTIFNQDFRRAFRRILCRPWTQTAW

[3] = molecular target: Kappa-type opioid receptor (Homo sapiens, UniProt P41145)
[4] = molecular target: Neuronal acetylcholine receptor subunit alpha-4 (Homo sapiens, UniProt P43681)
Progesterone receptor = molecular target: T3, Progesterone receptor (Homo sapiens, UniProt P06401); type: functional
T3 sequence (P06401 whole entry): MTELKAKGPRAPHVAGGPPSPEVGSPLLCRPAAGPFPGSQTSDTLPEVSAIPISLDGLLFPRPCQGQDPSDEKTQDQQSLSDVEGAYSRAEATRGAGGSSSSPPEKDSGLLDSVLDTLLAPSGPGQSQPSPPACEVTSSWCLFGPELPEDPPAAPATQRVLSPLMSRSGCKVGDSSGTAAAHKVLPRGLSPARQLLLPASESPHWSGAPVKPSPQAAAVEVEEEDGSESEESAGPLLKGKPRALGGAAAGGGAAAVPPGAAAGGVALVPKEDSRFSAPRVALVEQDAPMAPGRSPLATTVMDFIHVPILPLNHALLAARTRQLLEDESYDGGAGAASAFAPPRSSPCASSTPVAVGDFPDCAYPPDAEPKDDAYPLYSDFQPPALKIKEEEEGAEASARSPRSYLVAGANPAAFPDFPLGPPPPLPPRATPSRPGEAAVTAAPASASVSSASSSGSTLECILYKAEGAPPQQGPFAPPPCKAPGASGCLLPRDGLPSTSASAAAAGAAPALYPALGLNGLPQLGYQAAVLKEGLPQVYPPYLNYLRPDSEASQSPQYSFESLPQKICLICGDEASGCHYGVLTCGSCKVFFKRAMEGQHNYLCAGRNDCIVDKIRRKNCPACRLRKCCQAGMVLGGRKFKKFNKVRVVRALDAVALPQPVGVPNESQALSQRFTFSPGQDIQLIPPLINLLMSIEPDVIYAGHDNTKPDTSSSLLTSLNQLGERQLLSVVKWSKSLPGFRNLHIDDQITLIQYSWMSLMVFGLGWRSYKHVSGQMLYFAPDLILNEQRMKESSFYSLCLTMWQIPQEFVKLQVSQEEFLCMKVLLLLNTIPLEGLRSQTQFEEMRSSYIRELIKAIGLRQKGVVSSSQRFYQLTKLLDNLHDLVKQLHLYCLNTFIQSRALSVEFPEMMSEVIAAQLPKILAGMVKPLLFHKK

Melanocortin receptor 3 = Melanocortin receptor 3 (Homo sapiens, UniProt P41968)
Cannabinoid receptor 1 = Cannabinoid receptor 1 (Homo sapiens, UniProt P21554); type: functional, cell-based
Motilin receptor = Motilin receptor (Homo sapiens, UniProt O43193)
[5] = molecular target: 5-hydroxytryptamine receptor 2B (Homo sapiens, UniProt P41595); type: functional, cell-based
Estrogen receptor = molecular target: T4, Estrogen receptor (Homo sapiens, UniProt P03372)
T4 sequence (P03372 whole entry): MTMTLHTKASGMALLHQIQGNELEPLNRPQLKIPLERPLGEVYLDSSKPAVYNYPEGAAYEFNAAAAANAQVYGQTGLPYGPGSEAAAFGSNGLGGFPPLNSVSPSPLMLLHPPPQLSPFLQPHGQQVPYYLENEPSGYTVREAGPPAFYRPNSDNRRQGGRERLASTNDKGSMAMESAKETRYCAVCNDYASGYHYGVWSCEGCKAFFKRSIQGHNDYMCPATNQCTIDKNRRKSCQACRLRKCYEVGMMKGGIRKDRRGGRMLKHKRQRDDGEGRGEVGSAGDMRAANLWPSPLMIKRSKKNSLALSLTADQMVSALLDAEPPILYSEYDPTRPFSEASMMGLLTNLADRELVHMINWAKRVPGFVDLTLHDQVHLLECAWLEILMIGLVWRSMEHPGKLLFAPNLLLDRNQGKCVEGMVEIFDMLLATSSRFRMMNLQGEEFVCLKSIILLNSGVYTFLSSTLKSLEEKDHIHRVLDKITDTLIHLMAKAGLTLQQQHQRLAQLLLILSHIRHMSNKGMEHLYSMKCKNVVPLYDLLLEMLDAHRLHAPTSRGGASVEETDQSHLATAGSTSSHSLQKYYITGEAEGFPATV

Histamine H1 receptor = Histamine H1 receptor (Homo sapiens, UniProt P35367)
Also: assay procedure not described here.

Sequence of Motilin receptor (O43193 whole entry): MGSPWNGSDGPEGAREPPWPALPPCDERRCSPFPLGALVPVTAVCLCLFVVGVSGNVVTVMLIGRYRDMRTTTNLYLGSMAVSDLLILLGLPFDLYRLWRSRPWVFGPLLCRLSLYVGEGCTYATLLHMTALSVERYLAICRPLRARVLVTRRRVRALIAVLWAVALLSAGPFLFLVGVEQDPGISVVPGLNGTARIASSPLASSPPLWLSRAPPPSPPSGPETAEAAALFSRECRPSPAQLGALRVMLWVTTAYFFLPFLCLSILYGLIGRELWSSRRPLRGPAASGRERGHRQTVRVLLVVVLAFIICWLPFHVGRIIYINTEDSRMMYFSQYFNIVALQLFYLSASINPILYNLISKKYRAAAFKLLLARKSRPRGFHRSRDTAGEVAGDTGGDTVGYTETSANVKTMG
Sequence of 5-hydroxytryptamine receptor 2B (P41595 whole entry): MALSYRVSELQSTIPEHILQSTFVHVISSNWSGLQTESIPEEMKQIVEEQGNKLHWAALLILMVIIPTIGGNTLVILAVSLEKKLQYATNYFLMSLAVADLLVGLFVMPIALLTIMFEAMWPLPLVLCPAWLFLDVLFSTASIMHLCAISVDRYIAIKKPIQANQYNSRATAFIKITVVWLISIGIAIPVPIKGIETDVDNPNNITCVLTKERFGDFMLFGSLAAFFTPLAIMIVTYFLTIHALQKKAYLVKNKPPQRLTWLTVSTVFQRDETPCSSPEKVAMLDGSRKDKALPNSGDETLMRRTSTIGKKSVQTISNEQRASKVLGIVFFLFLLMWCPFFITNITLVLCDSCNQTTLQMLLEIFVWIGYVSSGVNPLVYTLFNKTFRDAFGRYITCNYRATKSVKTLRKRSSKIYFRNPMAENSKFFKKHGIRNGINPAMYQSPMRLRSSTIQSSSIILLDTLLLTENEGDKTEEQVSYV
Sequence of Melanocortin receptor 3 (P41968 whole entry): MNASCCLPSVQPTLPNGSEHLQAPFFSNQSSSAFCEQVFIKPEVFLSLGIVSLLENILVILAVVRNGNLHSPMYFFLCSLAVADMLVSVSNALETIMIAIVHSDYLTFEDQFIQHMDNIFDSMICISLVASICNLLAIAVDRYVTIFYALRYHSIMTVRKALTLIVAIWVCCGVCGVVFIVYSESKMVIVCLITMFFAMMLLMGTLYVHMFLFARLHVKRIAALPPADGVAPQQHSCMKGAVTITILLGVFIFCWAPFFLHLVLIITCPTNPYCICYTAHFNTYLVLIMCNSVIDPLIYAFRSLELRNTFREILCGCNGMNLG
Sequence of Histamine H1 receptor (P35367 whole entry): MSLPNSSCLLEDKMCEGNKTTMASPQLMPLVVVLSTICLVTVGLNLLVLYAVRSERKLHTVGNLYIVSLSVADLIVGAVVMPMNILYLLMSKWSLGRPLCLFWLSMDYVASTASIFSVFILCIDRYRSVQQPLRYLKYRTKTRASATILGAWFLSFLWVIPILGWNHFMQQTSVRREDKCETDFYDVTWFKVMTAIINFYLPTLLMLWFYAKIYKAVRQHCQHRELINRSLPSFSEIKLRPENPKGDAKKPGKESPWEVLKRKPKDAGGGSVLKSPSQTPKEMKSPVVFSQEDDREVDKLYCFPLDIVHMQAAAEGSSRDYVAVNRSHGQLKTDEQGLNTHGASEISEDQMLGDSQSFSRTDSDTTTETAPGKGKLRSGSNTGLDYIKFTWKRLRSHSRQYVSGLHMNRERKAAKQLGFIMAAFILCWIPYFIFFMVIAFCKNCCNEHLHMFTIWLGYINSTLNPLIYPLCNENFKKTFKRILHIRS
Sequence of Cannabinoid receptor 1 (P21554 whole entry): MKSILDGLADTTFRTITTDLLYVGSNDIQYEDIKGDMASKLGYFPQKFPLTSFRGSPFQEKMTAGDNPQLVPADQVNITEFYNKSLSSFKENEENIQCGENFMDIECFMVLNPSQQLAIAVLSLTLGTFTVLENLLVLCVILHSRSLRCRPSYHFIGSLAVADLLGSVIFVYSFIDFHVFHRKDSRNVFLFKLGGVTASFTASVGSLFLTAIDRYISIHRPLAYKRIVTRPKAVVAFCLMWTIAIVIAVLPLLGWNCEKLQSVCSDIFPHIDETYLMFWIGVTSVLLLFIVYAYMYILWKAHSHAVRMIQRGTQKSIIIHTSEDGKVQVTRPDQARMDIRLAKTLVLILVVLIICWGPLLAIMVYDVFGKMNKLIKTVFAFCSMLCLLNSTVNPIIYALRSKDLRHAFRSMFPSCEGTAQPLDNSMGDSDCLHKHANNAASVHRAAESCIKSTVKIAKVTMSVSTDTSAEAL
Sequence of Neuronal acetylcholine receptor subunit alpha-4 (P43681 whole entry): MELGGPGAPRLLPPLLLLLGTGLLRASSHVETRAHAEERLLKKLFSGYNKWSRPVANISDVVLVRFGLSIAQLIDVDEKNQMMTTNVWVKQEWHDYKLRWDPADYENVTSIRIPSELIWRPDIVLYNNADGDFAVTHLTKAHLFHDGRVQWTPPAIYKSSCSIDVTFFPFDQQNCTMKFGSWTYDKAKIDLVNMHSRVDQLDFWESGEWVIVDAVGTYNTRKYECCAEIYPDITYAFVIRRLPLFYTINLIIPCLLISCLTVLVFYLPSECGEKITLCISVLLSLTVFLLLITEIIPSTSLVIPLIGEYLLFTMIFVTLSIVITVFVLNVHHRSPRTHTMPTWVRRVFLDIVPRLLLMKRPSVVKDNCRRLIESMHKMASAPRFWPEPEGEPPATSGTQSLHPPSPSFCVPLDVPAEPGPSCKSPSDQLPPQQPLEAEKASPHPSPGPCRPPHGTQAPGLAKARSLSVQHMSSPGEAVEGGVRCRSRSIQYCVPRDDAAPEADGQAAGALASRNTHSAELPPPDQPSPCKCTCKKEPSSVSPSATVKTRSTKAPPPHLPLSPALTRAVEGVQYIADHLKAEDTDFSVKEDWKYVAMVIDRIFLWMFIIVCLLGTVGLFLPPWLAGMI
Sequence of Kappa-type opioid receptor (P41145 whole entry): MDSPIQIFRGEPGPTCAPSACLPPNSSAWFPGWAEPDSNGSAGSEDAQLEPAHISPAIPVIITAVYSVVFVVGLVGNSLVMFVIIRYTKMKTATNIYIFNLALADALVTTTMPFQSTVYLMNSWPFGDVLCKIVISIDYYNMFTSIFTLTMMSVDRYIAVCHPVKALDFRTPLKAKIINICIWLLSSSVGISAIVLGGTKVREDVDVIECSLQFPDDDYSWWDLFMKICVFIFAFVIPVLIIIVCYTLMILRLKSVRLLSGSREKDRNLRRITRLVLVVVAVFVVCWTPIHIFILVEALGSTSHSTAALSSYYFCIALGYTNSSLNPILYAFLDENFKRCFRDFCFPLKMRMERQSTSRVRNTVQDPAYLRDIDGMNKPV

Compound | AC50 [1] [µM] | AC50 [2] [µM] | AC50 [3] [µM] | AC50 [4] [µM] | AC50 (Progesterone receptor) [µM] | AC50 (Melanocortin receptor 3) [µM] | AC50 (Cannabinoid receptor 1) [µM] | AC50 (Motilin receptor) [µM] | AC50 [5] [µM] | AC50 (Estrogen receptor) [µM] | AC50 (Histamine H1 receptor) [µM]
CCOC(=O)Nc1ccc2c(c1)N(C(=O)CCN1CCOCC1)c1ccccc1S2 [MORICIZINE] | > 30 | > 30 | > 30 | > 30 | > 30 | > 30 | > 30 | > 30 | > 30 | > 30 | > 30
Cc1ccc(=O)n(-c2ccccc2)c1 [PIRFENIDONE] | > 30 | > 30 | > 30 | > 30 | > 30 | > 30 | > 30 | > 30 | > 30 | > 30 | > 30
NC(=O)CCC/N=C(\c1ccc(Cl)cc1)c1cc(F)ccc1O [PROGABIDE] | > 30 | > 10 | > 10 | > 10 | > 10 | > 10 | > 30 | > 10 | > 10 | > 10 | > 10
CCCOC(C(=O)OC1CCN(C)CC1)(c1ccccc1)c1ccccc1 [PROPIVERINE] | 9.9 | > 30 | 11 | > 30 | > 30 | > 30 | > 30 | 15 | 16 | > 30 | 18
CN1c2ccccc2C(NCCCCCCC(=O)O)c2ccc(Cl)cc2S1(=O)=O (stereo unspecified) [TIANEPTINE] | > 30 | > 30 | > 30 | > 30 | > 30 | > 30 | > 30 | > 30 | > 30 | > 30 | > 30
C=CC(N)CCC(=O)O (stereo unspecified) [VIGABATRIN] | > 30 | > 10 | > 10 | > 10 | > 10 | > 10 | > 30 | > 10 | > 10 | > 10 | > 10

From ChEMBL document CHEMBL5291721, “A preclinical secondary pharmacology resource illuminates target-adverse drug reaction associations of marketed drugs” (Nat Commun, 2023)
